In brackets after ≈: the same amount, converted by molar mass.
Legend:
Assay type in all cases: functional, organism-based
[1] = system: Murid betaherpesvirus 1; experiment: Antiviral activity against mouse cytomegalovirus assessed as effect on virus-induced cytopathic effect
[2] = system: Murid betaherpesvirus 1; experiment: Antiviral activity against mouse cytomegalovirus by plaque-neutralization assay
[3] = system: Human betaherpesvirus 5; experiment: Antiviral activity against human cytomegalovirus by plaque-neutralization assay
[4] = system: Human alphaherpesvirus 2; experiment: Antiviral activity against herpes simplex virus type 2 assessed as effect on virus-induced cytopathic effect
[5] = system: Influenza A virus; experiment: Antiviral activity against influenza A virus by hemadsorption inhibition assay
[6] = system: Respiratory syncytial virus; experiment: Antiviral activity against respiratory syncytial virus assessed as effect on virus-induced cytopathic effect; conditions: human respiratory syncytial virus

| Structure (SMILES) | EC50 [1] [µg/mL] | EC50 [2] [µg/mL] | EC50 [3] [µg/mL] | other results |
| --- | --- | --- | --- | --- |
| CC(C)(COC(=O)c1ccc2c(c1)OCO2)CC1=C(O)C(=O)c2ccccc2C1=O | 9.5 (≈ 23.3 µM) | 9.5 (≈ 23.3 µM) | 0.22 (≈ 0.539 µM) |  |
| Nc1nc2c(ncn2COCCO)c(=O)[nH]1 [ACYCLOVIR] |  |  |  | EC50 [4]: 2.3 µg/mL (≈ 10.2 µM) |
| NC12CC3CC(CC(C3)C1)C2 [AMANTADINE] |  |  |  | EC50 [5]: 0.054 µg/mL (≈ 0.357 µM) |
| Nc1nc2c(ncn2COC(CO)CO)c(=O)[nH]1 [GANCICLOVIR] | 5 (≈ 19.6 µM) | 13.8 (≈ 54.1 µM) | 3.4 (≈ 13.3 µM) |  |
| C/C=C(\C)CC/C=C(\C)C(=O)OCC(C)(C)CC1=C(O)C(=O)c2ccccc2C1=O [RHINACANTHIN C] | 1.1 (≈ 2.68 µM) | 0.57 (≈ 1.39 µM) | 0.02 (≈ 0.0487 µM) |  |
| NC(=O)c1ncn([C@@H]2O[C@H](CO)[C@@H](O)[C@H]2O)n1 [RIBAVIRIN] |  |  |  | EC50 [6]: 1.8 µg/mL (≈ 7.37 µM) |

Source: ChEMBL document CHEMBL1158236, “Two new naphthoquinones with antiviral activity from Rhinacanthus nasutus” (J Nat Prod, 1996)
